Test results from patent US9522128B2 (FUNDACION PARA LA INVESTIGACION BIOMEDICA DEL HOSPITAL …, priority 2008, dated 2016).
Where two headings read alike, the source gives them in different places.

Tests used:
[1] = cited from earlier work; for nature (neutral, anionic, apolar) at physiological pH: 7 or close to 7
[2] = test system: primary cultures of proximal tubular cells (PTCs); assay: Cell growth dynamics in primary culture of proximal tubular cells
[3] = test system: cells of pig proximal tubular epithelium in primary culture
[4] = test system: rabbits; settings: rabbit, in vivo; cited from earlier work
[5] = test system: CD3+ lymphocytes (human T cells); settings: cyclosporin A at different doses
Procedure: The sample was centrifuged at 120 g and was resuspended in 750 μL of RPMI medium (in the absence of FCS: fetal calf serum) to quantify the number of cells available using trypan blue. One hundred thousand cells per point were distributed.
Incubation was performed for 4 hours at 37° C. Cells were centrifuged for 6 minutes at 1200 rpm. The precipitate was resuspended in 100 μL of buffer (10 mmol/L HEPES, 150 mmol/L NaCl, 5 mmol/L KCl, 1 mmol/L Mg Cl2, 1.8 mmol/L CaCl2) and 5 μL of annexin-V. It was incubated in the dark for 10 minutes.
Intensity of green fluorescence of cells was quantified as displacement in the logarithmic scale from control (cells growing in 10% FCS) versus the number of cells analyzed. Cell debris was excluded from the analysis.

[6] = test system: cultures of cells of the proximal tubular epithelium; assay: Scanning electron microscopy of cell morphology; settings: 11 days; cyclosporin A 1 μg/mL without or with cilastatin 200 μg/mL

Molecule: CC(=O)Nc1ccc(O)cc1 [Acetaminophen, N-(4-hydroxyphenyl)ethanamide]
- SOLUBILITY IN WATER ([1]; in words): moderately soluble in
- SOLUBILITY IN ORGANIC MEDIA ([1]; in words, in ethanol and acetone): soluble in ethanol and acetone
- SOLUBILITY IN ORGANIC MEDIA ([1]; in words, in serum): insoluble in serum
- nature (neutral, anionic, apolar) at physiological pH [1]: neutral

Molecule: C[C@@H]1[C@H](O)[C@@H](C)/C=C/C=C/C=C/C=C/C=C/C=C/C=C/[C@H](O[C@@H]2O[C@H](C)[C@@H](O)[C@H](N)[C@@H]2O)C[C@@H]2O[C@](O)(C[C@@H](O)C[C@@H](O)[C@H](O)CC[C@@H](O)C[C@@H](O)CC(=O)O[C@H]1C)C[C@H](O)[C@H]2C(=O)O [Amphotericin B]
- SOLUBILITY IN ORGANIC MEDIA ([1]; DMF + HCl): DMF + HCl (60-80 mg/mL)
- SOLUBILITY IN ORGANIC MEDIA ([1]; DMF): soluble in DMF (2-4 mg/mL),
- SOLUBILITY IN ORGANIC MEDIA ([1]; DMSO): DMSO (30-40 mg/mL)
- nature (neutral, anionic, apolar) at physiological pH [1]: anionic
- SOLUBILITY IN WATER ([1]; water at pH 2 or pH 11): 11 (0.1 mg/mL)

Molecule: ClC(Cl)Cl [Chloroform, CHCl3]
- nature (neutral, anionic, apolar) at physiological pH [1]: apolar

Molecule: N.N.[Cl][Pt][Cl] [Cisplatin, cis-diaminodychloroplatin II]
- nature (neutral, anionic, apolar) at physiological pH [1]: neutral

Molecule: O=C(O)P(=O)(O)O [Foscarnet, phosphonoformic acid]
- SOLUBILITY IN ORGANIC MEDIA ([1]; in words): insoluble
- SOLUBILITY IN WATER ([1]; in words): soluble in water
- nature (neutral, anionic, apolar) at physiological pH [1]: anionic

Molecule: C[C@H](O)C(=O)Nc1c(I)c(C(=O)NC(CO)CO)c(I)c(C(=O)NC(CO)CO)c1I [Iopamidol]
- SOLUBILITY IN ORGANIC MEDIA ([1]; in words): soluble in methanol insoluble
- SOLUBILITY IN WATER ([1]; in words): soluble in water
- nature (neutral, anionic, apolar) at physiological pH [1]: anionic

Molecule: OC[C@@H](O)[C@@H](O)[C@H](O)[C@H](O)CO [Mannitol]
- SOLUBILITY IN WATER [1]: (1 g/5.5 mL)
- SOLUBILITY IN WATER ([1]; in words): soluble in water
- nature (neutral, anionic, apolar) at physiological pH [1]: anionic

Molecule: C=CC[C@@H]1/C=C(\C)C[C@H](C)C[C@H](OC)[C@H]2O[C@@](O)(C(=O)C(=O)N3CCCC[C@H]3C(=O)O[C@H](/C(C)=C/[C@@H]3CC[C@@H](O)[C@H](OC)C3)[C@H](C)[C@@H](O)CC1=O)[C@H](C)C[C@@H]2OC.O [Tacrolimus]
- SOLUBILITY IN ORGANIC MEDIA ([1]; in words): high
- SOLUBILITY IN WATER ([1]; in words): insoluble
- nature (neutral, anionic, apolar) at physiological pH [1]: apolar
- cell growth in the presence of the nephrotoxic ([2]; from the time of seeding, cyclosporin A 1 or 10 μg/mL, tacrolimus 50 ng/mL): dose-dependently reduced
- day of culture from which cell growth is significantly decreased compared to control ([2]; post hoc analysis, cyclosporin 1 μg/mL and 10 μg/mL, tacrolimus (FK-506)): ≥ 7 days

Molecule: CN[C@H](CC(C)C)C(=O)NC1C(=O)N[C@@H](CC(N)=O)C(=O)N[C@H]2C(=O)N[C@H]3C(=O)N[C@H](C(=O)N[C@@H](C(=O)O)c4cc(O)cc(O)c4-c4cc3ccc4O)[C@H](O)c3ccc(c(Cl)c3)Oc3cc2cc(c3OC2O[C@@H](CO)[C@@H](O)[C@H](O)[C@@H]2O[C@@H]2C[C@](C)(N)[C@H](O)[C@@H](C)O2)Oc2ccc(cc2Cl)[C@H]1O (stereo partly drawn) [Vancomycin]
- SOLUBILITY IN WATER ([1]; in words): water-soluble
- SOLUBILITY IN WATER ([1]; in words, listed as VANCOMYCIN): high

Molecule: CCCCC[C@@H](O)[C@H]1C(=O)O[C@H](C)[C@@H](O)/C=C/C=C/C=C/C=C/C=C(\C)[C@@H](O)C[C@H](O)C[C@H](O)C[C@H](O)C[C@H](O)C[C@H](O)C[C@@H]1O [filipin]
- cell death [3]: causes cell death in a short time
- internalization of fluorescent toxin B labeled caveolae from cell membrane to Golgi apparatus ([3]; […], cilastatin 200 μg/mL or filipin 50 μg/mL, pre-incubated 20 minutes): prevents their internalization

Molecule: C[C@@H](O)[C@H]1C(=O)N2C(C(=O)O)=C(SCCN=CN)C[C@H]12 [imipenem]
- tubular toxicity [4]: may cause tubular toxicity

Molecule: Cyclosporin A
- percent cell death of human T cells [5]: dose-response effect of the lethal effect
- cell morphology by scanning electron microscopy [6]: causes cytosolic condensation, cell rupture, and monolayer disruption

Molecule: Gentamicin
- nature (neutral, anionic, apolar) at physiological pH [1]: neutral
